# Results as given in PMC5218480 (PLoS ONE, 2017).
# Tested on: MV-4-11 cells
# Assay: Gene expression microarray analysis (Affymetrix PrimeView) and GSEA
# Format: cell-based, human
# Design: RFU PODN (11730768_x_at) / Fold change /veh PODN (11730768_x_at) / RFU LINC00158 (11744669_a_at) / Fold change /veh LINC00158 (11744669_a_at) / RFU DUSP10 (11751237_a_at) / Fold change /veh DUSP10 (11751237_a_at) / RFU ID3 (11757404_x_at) / Fold change /veh ID3 (11757404_x_at) / RFU PLEKHG5 (11737974_s_at) / Fold change /veh PLEKHG5 (11737974_s_at) / RFU LRRC4B (11730491_at) / Fold change /veh LRRC4B (11730491_at) / RFU GIMAP4 (11747438_a_at) / Fold change /veh GIMAP4 (11747438_a_at) / RFU KRT8 (11758183_x_at) / Fold change /veh KRT8 (11758183_x_at) / RFU CNN1 (11734310_a_at) / Fold change /veh CNN1 (11734310_a_at) / RFU VPS37D (11726825_at) / Fold change /veh VPS37D (11726825_at) / RFU C10orf10 (11716522_x_at) / Fold change /veh C10orf10 (11716522_x_at) / RFU KIR2DL2 /// KIR2DL4 /// KIR2DL5A /// KIR2DL5B /// KIR2DS1 /// KIR2DS2 /// KIR2DS3 /// KIR2DS4 /// KIR3DL3 /// KIR3DL3 /// KIR3DS1 (11738374_at) / Fold change /veh KIR2DL2 /// KIR2DL4 /// KIR2DL5A /// KIR2DL5B /// KIR2DS1 /// KIR2DS2 /// KIR2DS3 /// KIR2DS4 /// KIR3DL3 /// KIR3DL3 /// KIR3DS1 (11738374_at) / RFU C1QL1 (11718748_at) / Fold change /veh C1QL1 (11718748_at) / RFU TMPRSS4 (11747572_a_at) / Fold change /veh TMPRSS4 (11747572_a_at) / RFU HAMP (11756126_x_at) / Fold change /veh HAMP (11756126_x_at) / RFU RNFT2 (11725882_a_at) / Fold change /veh RNFT2 (11725882_a_at) / RFU NR4A2 (11747474_a_at) / Fold change /veh NR4A2 (11747474_a_at) / RFU ABCC12 (11746883_a_at) / Fold change /veh ABCC12 (11746883_a_at) / RFU TMEM136 (11760407_x_at) / Fold change /veh TMEM136 (11760407_x_at) / RFU CLDN22 /// WWC2 (11732394_at) / Fold change /veh CLDN22 /// WWC2 (11732394_at) / RFU HLA-DPB1 (11760878_x_at) / Fold change /veh HLA-DPB1 (11760878_x_at) / RFU SPINT1 (11716480_a_at) / Fold change /veh SPINT1 (11716480_a_at) / RFU GAP43 (11754022_s_at) / Fold change /veh GAP43 (11754022_s_at) / RFU A4GNT (11735810_at) / Fold change /veh A4GNT (11735810_at) / RFU PRB3 (11715151_x_at) / Fold change /veh PRB3 (11715151_x_at) / RFU TUBB4B (11761932_at) / Fold change /veh TUBB4B (11761932_at) / RFU CAPN14 (11732068_a_at) / Fold change /veh CAPN14 (11732068_a_at) / RFU TMCC2 (11721928_a_at) / Fold change /veh TMCC2 (11721928_a_at) / RFU IRGQ (11745062_a_at) / Fold change /veh IRGQ (11745062_a_at) / RFU FAM174B (11720279_a_at) / Fold change /veh FAM174B (11720279_a_at) / RFU TMPRSS4 (11748680_a_at) / Fold change /veh TMPRSS4 (11748680_a_at) / RFU FAM212B (11763350_a_at) / Fold change /veh FAM212B (11763350_a_at) / RFU PLEKHG5 (11743358_a_at) / Fold change /veh PLEKHG5 (11743358_a_at) / RFU ZSCAN30 (11745921_a_at) / Fold change /veh ZSCAN30 (11745921_a_at) / RFU CMKLR1 (11741424_a_at) / Fold change /veh CMKLR1 (11741424_a_at) / RFU LOC101060620 /// MAPK8IP1 (11723275_at) / Fold change /veh LOC101060620 /// MAPK8IP1 (11723275_at) / RFU SPTSSB (11747773_x_at) / Fold change /veh SPTSSB (11747773_x_at) / RFU PRSS12 (11739890_at) / Fold change /veh PRSS12 (11739890_at) / RFU BIN1 (11741810_x_at) / Fold change /veh BIN1 (11741810_x_at) / RFU WNT11 (11732464_a_at) / Fold change /veh WNT11 (11732464_a_at) / RFU C10orf10 (11716521_a_at) / Fold change /veh C10orf10 (11716521_a_at) / RFU C5orf56 (11738089_at) / Fold change /veh C5orf56 (11738089_at) / RFU CYB561 (11721691_x_at) / Fold change /veh CYB561 (11721691_x_at) / RFU ANKRD19P (11752326_a_at) / Fold change /veh ANKRD19P (11752326_a_at) / RFU OR2T12 /// OR2T33 /// OR2T8 (11738714_s_at) / Fold change /veh OR2T12 /// OR2T33 /// OR2T8 (11738714_s_at) / RFU VCAN (11748164_a_at) / Fold change /veh VCAN (11748164_a_at) / RFU JSRP1 (11732532_at) / Fold change /veh JSRP1 (11732532_at) / RFU KRTAP10-11 (11738290_x_at) / Fold change /veh KRTAP10-11 (11738290_x_at) / RFU MYO3A (11730013_a_at) / Fold change /veh MYO3A (11730013_a_at) / RFU EBF3 (11725865_a_at) / Fold change /veh EBF3 (11725865_a_at) / RFU CAMK2N1 (11719241_x_at) / Fold change /veh CAMK2N1 (11719241_x_at) / RFU C5orf56 (11738088_a_at) / Fold change /veh C5orf56 (11738088_a_at) / RFU OLFML3 (11715873_a_at) / Fold change /veh OLFML3 (11715873_a_at) / RFU LOC100653217 /// NTM (11731650_a_at) / Fold change /veh LOC100653217 /// NTM (11731650_a_at) / RFU MAPK11 (11762145_a_at) / Fold change /veh MAPK11 (11762145_a_at) / RFU FIZ1 (11724087_x_at) / Fold change /veh FIZ1 (11724087_x_at) / RFU OASL (11726364_x_at) / Fold change /veh OASL (11726364_x_at) / RFU SOX15 (11748057_x_at) / Fold change /veh SOX15 (11748057_x_at) / RFU CD79A (11719716_a_at) / Fold change /veh CD79A (11719716_a_at) / RFU HIST1H1D (11736915_at) / Fold change /veh HIST1H1D (11736915_at) / RFU CASKIN2 (11723855_a_at) / Fold change /veh CASKIN2 (11723855_a_at) / RFU LOC730098 (11760151_x_at) / Fold change /veh LOC730098 (11760151_x_at) / RFU OR4N2 (11742367_at) / Fold change /veh OR4N2 (11742367_at) / RFU PRRT2 (11749266_a_at) / Fold change /veh PRRT2 (11749266_a_at) / RFU SNX32 (11753110_a_at) / Fold change /veh SNX32 (11753110_a_at) / RFU CDHR5 (11726645_a_at) / Fold change /veh CDHR5 (11726645_a_at) / RFU RCAN1 (11760418_a_at) / Fold change /veh RCAN1 (11760418_a_at) / RFU FAM167A (11723789_a_at) / Fold change /veh FAM167A (11723789_a_at) / RFU FAM26E (11764081_at) / Fold change /veh FAM26E (11764081_at) / RFU ISYNA1 (11749810_s_at) / Fold change /veh ISYNA1 (11749810_s_at) / RFU ACY1 (11761880_at) / Fold change /veh ACY1 (11761880_at) / RFU 11764098_at / Fold change /veh 11764098_at / RFU SAMD14 (11745864_x_at) / Fold change /veh SAMD14 (11745864_x_at) / RFU NPB (11741838_a_at) / Fold change /veh NPB (11741838_a_at) / RFU TMPRSS6 (11731388_a_at) / Fold change /veh TMPRSS6 (11731388_a_at) / RFU KRTAP10-2 (11738614_at) / Fold change /veh KRTAP10-2 (11738614_at) / RFU ARHGAP8 /// PRR5-ARHGAP8 (11727945_x_at) / Fold change /veh ARHGAP8 /// PRR5-ARHGAP8 (11727945_x_at) / RFU KRTAP5-7 /// NADSYN1 (11734609_at) / Fold change /veh KRTAP5-7 /// NADSYN1 (11734609_at) / RFU RASL12 (11751679_a_at) / Fold change /veh RASL12 (11751679_a_at) / RFU CDKN2B (11736163_a_at) / Fold change /veh CDKN2B (11736163_a_at) / RFU PRF1 (11729649_at) / Fold change /veh PRF1 (11729649_at) / RFU, ZNF638 /// ZNF638-IT1 / Fold change vs veh, ZNF638 /// ZNF638-IT1 / RFU, PANK3 / Fold change vs veh, PANK3 / RFU, SH3YL1 / Fold change vs veh, SH3YL1 / RFU, ZEB2 / Fold change vs veh, ZEB2 / RFU, NRIP1 / Fold change vs veh, NRIP1 / RFU, PTTG1IP / Fold change vs veh, PTTG1IP / RFU, CAPN2 / Fold change vs veh, CAPN2 / RFU, MED14 / Fold change vs veh, MED14 / RFU, SNORA58 / Fold change vs veh, SNORA58 / RFU, C1orf63 / Fold change vs veh, C1orf63 / RFU, LRRFIP1 / Fold change vs veh, LRRFIP1 / RFU, NDUFAF7 / Fold change vs veh, NDUFAF7 / RFU, SLC12A2 / Fold change vs veh, SLC12A2 / RFU, IBTK / Fold change vs veh, IBTK / RFU, ESF1 / Fold change vs veh, ESF1 / Fold change vs veh, TMEM50B / RFU, TAOK1 / Fold change vs veh, TAOK1 / RFU, ACBD3 / Fold change vs veh, ACBD3 / RFU, TMA16 / Fold change vs veh, TMA16 / RFU, RWDD3 / Fold change vs veh, RWDD3 / RFU, BCAT1 / Fold change vs veh, BCAT1 / RFU, EDEM3 / Fold change vs veh, EDEM3 / RFU, TMEM33 / Fold change vs veh, TMEM33 / RFU, WDR75 / Fold change vs veh, WDR75 / RFU, AHCTF1 / Fold change vs veh, AHCTF1 / RFU, TFRC / Fold change vs veh, TFRC / RFU, ZDHHC17 / Fold change vs veh, ZDHHC17 / RFU, NOM1 / Fold change vs veh, NOM1 / RFU, ARL8B / Fold change vs veh, ARL8B / RFU, ZBTB11 / Fold change vs veh, ZBTB11 / RFU, TAMM41 / Fold change vs veh, TAMM41 / RFU, KIAA1704 /// LOC100996395 / Fold change vs veh, KIAA1704 /// LOC100996395 / RFU, ING1 / Fold change vs veh, ING1 / RFU, TRMT61B / Fold change vs veh, TRMT61B / RFU, FUBP3 / Fold change vs veh, FUBP3 / RFU, TP53 / Fold change vs veh, TP53 / RFU, TNKS2 / Fold change vs veh, TNKS2 / RFU, ZFP14 / Fold change vs veh, ZFP14 / RFU, ACTR2 / Fold change vs veh, ACTR2 / RFU, PPP3R1 / Fold change vs veh, PPP3R1 / RFU, PIK3R1 / Fold change vs veh, PIK3R1 / RFU, HNRNPA1 / Fold change vs veh, HNRNPA1 / RFU, RNF170 / Fold change vs veh, RNF170 / RFU, ZNF28 / Fold change vs veh, ZNF28 / RFU, RNGTT / Fold change vs veh, RNGTT / RFU, OGT / Fold change vs veh, OGT / RFU, BRD1 / Fold change vs veh, BRD1 / RFU, MARS / Fold change vs veh, MARS / RFU, ZNF655 / Fold change vs veh, ZNF655 / RFU, FAHD1 / Fold change vs veh, FAHD1 / RFU, BDP1 / Fold change vs veh, BDP1 / RFU, LRRCC1 / Fold change vs veh, LRRCC1 / RFU, ARID1A / Fold change vs veh, ARID1A / RFU, ZNF146 / Fold change vs veh, ZNF146 / RFU, ZNF330 / Fold change vs veh, ZNF330 / RFU, GPN3 / Fold change vs veh, GPN3 / RFU, C9orf123 / Fold change vs veh, C9orf123 / RFU, N4BP2L2 / Fold change vs veh, N4BP2L2 / RFU, ARFIP1 / Fold change vs veh, ARFIP1 / RFU, FAM179B / Fold change vs veh, FAM179B / RFU, BCL10 / Fold change vs veh, BCL10 / RFU, UHRF1BP1L / Fold change vs veh, UHRF1BP1L / RFU, BET1 / Fold change vs veh, BET1 / RFU, CNOT2 / Fold change vs veh, CNOT2 / RFU, ZNF268 / Fold change vs veh, ZNF268 / Fold change vs veh, ZNF507 / RFU, DGCR2 / Fold change vs veh, DGCR2 / RFU, WDSUB1 / Fold change vs veh, WDSUB1 / Fold change vs veh, HSP90B1 /// MIR3652 / RFU, ADSS / Fold change vs veh, ADSS / RFU, GK / Fold change vs veh, GK / RFU, ZNF148 / Fold change vs veh, ZNF148 / RFU, TAF9 / Fold change vs veh, TAF9 / RFU, SLC1A5 / Fold change vs veh, SLC1A5 / RFU, SLMO2 / Fold change vs veh, SLMO2 / RFU, ABCC4 / Fold change vs veh, ABCC4 / RFU, LOC101060439 /// RAP1B / Fold change vs veh, LOC101060439 /// RAP1B / RFU, RFX7 / Fold change vs veh, RFX7 / RFU, GTPBP10 / Fold change vs veh, GTPBP10 / RFU, CNEP1R1 / Fold change vs veh, CNEP1R1 / RFU, BIVM-ERCC5 /// ERCC5 / Fold change vs veh, BIVM-ERCC5 /// ERCC5 / RFU, ILF3 / Fold change vs veh, ILF3 / RFU 11762660_at / Fold change /veh 11762660_at / RFU VCAN (11757783_s_at) / Fold change /veh VCAN (11757783_s_at) / RFU DDX43 (11728927_at) / Fold change /veh DDX43 (11728927_at) / RFU KRT8 (11758188_x_at) / Fold change /veh KRT8 (11758188_x_at) / RFU NKD1 (11759106_at) / Fold change /veh NKD1 (11759106_at) / RFU SRD5A1 (11742802_a_at) / Fold change /veh SRD5A1 (11742802_a_at) / RFU TPSAB1 /// TPSB2 (11721975_s_at) / Fold change /veh TPSAB1 /// TPSB2 (11721975_s_at) / RFU GSTM3 (11746129_a_at) / Fold change /veh GSTM3 (11746129_a_at) / RFU IL23R (11737362_x_at) / Fold change /veh IL23R (11737362_x_at) / RFU TMEM51 (11727254_a_at) / Fold change /veh TMEM51 (11727254_a_at) / RFU PIWIL2 (11732686_x_at) / Fold change /veh PIWIL2 (11732686_x_at) / RFU ORM1 (11744905_x_at) / Fold change /veh ORM1 (11744905_x_at) / RFU CCDC152 (11743942_at) / Fold change /veh CCDC152 (11743942_at) / RFU ECM1 (11717891_a_at) / Fold change /veh ECM1 (11717891_a_at) / RFU IL23R (11748794_a_at) / Fold change /veh IL23R (11748794_a_at) / RFU TNFAIP8L3 (11732012_x_at) / Fold change /veh TNFAIP8L3 (11732012_x_at) / RFU MBOAT4 (11741988_at) / Fold change /veh MBOAT4 (11741988_at) / RFU 11764193_at / Fold change /veh 11764193_at / RFU TMEM53 (11763286_at) / Fold change /veh TMEM53 (11763286_at) / RFU MAGEB2 (11727129_at) / Fold change /veh MAGEB2 (11727129_at) / RFU TMEM200A (11744735_a_at) / Fold change /veh TMEM200A (11744735_a_at) / RFU CCDC152 (11751479_a_at) / Fold change /veh CCDC152 (11751479_a_at) / RFU FAM211A (11726209_a_at) / Fold change /veh FAM211A (11726209_a_at) / RFU RGS16 (11746705_a_at) / Fold change /veh RGS16 (11746705_a_at) / RFU VCAN (11755009_s_at) / Fold change /veh VCAN (11755009_s_at) / RFU RHOB (11743442_s_at) / Fold change /veh RHOB (11743442_s_at) / RFU RGS16 (11720943_a_at) / Fold change /veh RGS16 (11720943_a_at) / RFU RGS16 (11720944_at) / Fold change /veh RGS16 (11720944_at) / RFU, VPS4B / Fold change vs veh, VPS4B / RFU, CREB1 / Fold change vs veh, CREB1 / RFU, DNAJC13 / Fold change vs veh, DNAJC13 / RFU, GNAQ / Fold change vs veh, GNAQ / RFU, CDK5R1 / Fold change vs veh, CDK5R1 / RFU, ZRANB3 / Fold change vs veh, ZRANB3 / RFU, CUL4A / Fold change vs veh, CUL4A / RFU, CCNY / Fold change vs veh, CCNY / RFU, UFL1 / Fold change vs veh, UFL1 / RFU, COG3 / Fold change vs veh, COG3 / RFU, DIAPH2 / Fold change vs veh, DIAPH2 / RFU, SKA2 / Fold change vs veh, SKA2 / RFU, AFF3 / Fold change vs veh, AFF3 / RFU, LMF1 / Fold change vs veh, LMF1 / RFU, IPO11 / Fold change vs veh, IPO11 / RFU, DFFB / Fold change vs veh, DFFB / RFU, FOXP1 / Fold change vs veh, FOXP1 / RFU, CARD8 / Fold change vs veh, CARD8 / RFU, STRN3 / Fold change vs veh, STRN3 / RFU, ADK / Fold change vs veh, ADK / RFU, RASSF2 / Fold change vs veh, RASSF2 / RFU, WIPF1 / Fold change vs veh, WIPF1 / RFU, LARP1B / Fold change vs veh, LARP1B / RFU, RASA1 / Fold change vs veh, RASA1 / RFU, RB1 / Fold change vs veh, RB1 / RFU, PPFIA1 / Fold change vs veh, PPFIA1 / RFU, MAT2A / Fold change vs veh, MAT2A / RFU, CCT5 / Fold change vs veh, CCT5 / RFU, WDR92 / Fold change vs veh, WDR92 / RFU, CUX1 / Fold change vs veh, CUX1 / RFU, TTC7A / Fold change vs veh, TTC7A / RFU, TMEM135 / Fold change vs veh, TMEM135 / RFU, DEPTOR / Fold change vs veh, DEPTOR / RFU, CPM / Fold change vs veh, CPM / RFU, DNAJB6 / Fold change vs veh, DNAJB6 / RFU, CACNA2D3 / Fold change vs veh, CACNA2D3 / RFU, DTX4 / Fold change vs veh, DTX4 / RFU, TFCP2 / Fold change vs veh, TFCP2 / RFU, GMCL1 /// GMCL1P1 / Fold change vs veh, GMCL1 /// GMCL1P1 / RFU, AEBP2 / Fold change vs veh, AEBP2 / RFU, SNHG1 /// SNORD22 /// SNORD25 /// SNORD26 /// SNORD27 /// SNORD28 /// SNORD29 /// SNORD31 / Fold change vs veh, SNHG1 /// SNORD22 /// SNORD25 /// SNORD26 /// SNORD27 /// SNORD28 /// SNORD29 /// SNORD31 / Fold change (Aza/veh), C12orf56 (ProbeSet 11735607_a_at) / Fold change (ACY-1035/veh), C12orf56 (ProbeSet 11735607_a_at) / Fold change (Aza/veh), FGFR1OP (ProbeSet 11751329_s_at) / Fold change (ACY-1035/veh), FGFR1OP (ProbeSet 11751329_s_at) / Fold change (Aza/veh), VPS36 (ProbeSet 11739960_a_at) / Fold change (ACY-1035/veh), VPS36 (ProbeSet 11739960_a_at) / RFU SYPL1 (11715823_x_at) / Fold change /veh SYPL1 (11715823_x_at) / RFU IGFBP7 (11715501_s_at) / Fold change /veh IGFBP7 (11715501_s_at) / RFU REEP3 (11722064_at) / Fold change /veh REEP3 (11722064_at) / RFU IGLL1 (11728026_x_at) / Fold change /veh IGLL1 (11728026_x_at): dose or concentration left out as unconfirmed
# Conditions: ProbeSet 11718977_a_at; LIST B
structure (smiles),measurement,value
Nc1ncn([C@@H]2O[C@H](CO)[C@@H](O)[C@H]2O)c(=O)n1 [azacitidine],"RFU, CAPN2",169.72 RFU
